pEC50: −log10 of the molar value. Read-outs that look alike come from different tables or passages of the source. Where a SMILES comes first, the peptide text is derived from it. The star is where a group is joined. Cbz = O=C(OCc1ccccc1)*
Test system: K328M-Wee1-Luc fusion protein in transiently transfected HeLa cells
Test: K328M-Wee1-Luc degradation
Type: cell-based

Q: What does the source list for `CC(C)C[C@@H](C=O)NC(=O)[C@H](CC(C)C)NC(=O)[C@H](CC(C)C)NC(=O)OCc1ccccc1` [MG132, Z-Leu-Leu-Leu-CHO] (Cbz-Leu-Leu-Leu-aldehyde)?
A: hill slope of dose-response curve: > 2.5; increase in luminescent levels (30 μM, vs DMSO): > 9 fold; pEC50 (optimized 1536-well protocol, n=5): 5.33; pEC50 (read-out: EC50, different thawed vials from a single batch, n=4): 5.33; pEC50 (read-out: EC50, non-cryopreserved cells, non-cryopreserved cell suspensions): 5.27

From PMC3082437 (Journal of biomolecular screening, 2010)
